Legend:
[1] = 101.33 kPa, Liquid
[2] = xn = mol fraction of the nth substance listed; details: 101 kPa, Fluid (supercritical or subcritical phases)
[3] = cn = amount concentration of the nth substance listed, in mol/dm3; details: 101 kPa, Liquid, Direct current cell with electrodes

CCn1cc[n+](C)c1.COCCOCCOS(=O)(=O)[O-] [1-ethyl-3-methylimidazolium 2-(2-methoxyethoxy) ethylsulfate]
[1]
Details | mass density [kg/m3]
303.2 K | 1233.4
308.2 K | 1230
313.2 K | 1226.6
318.2 K | 1223.3
323.2 K | 1219.9

CCn1cc[n+](C)c1.COCCOCCOS(=O)(=O)[O-] [1-ethyl-3-methylimidazolium 2-(2-methoxyethoxy) ethylsulfate] + O
Details | binary diffusion coefficient, 303.2 K [m2/s] | binary diffusion coefficient, 308.2 K [m2/s] | binary diffusion coefficient, 313.2 K [m2/s] | binary diffusion coefficient, 318.2 K [m2/s] | binary diffusion coefficient, 323.2 K [m2/s] | molar conductivity, 303.2 K [S·m2/mol] | molar conductivity, 308.2 K [S·m2/mol] | molar conductivity, 313.2 K [S·m2/mol] | molar conductivity, 318.2 K [S·m2/mol] | molar conductivity, 323.2 K [S·m2/mol]
[2], x2 = 0 | 9.95e-10 | 1.06e-09 | 1.27e-09 | 1.32e-09 | 1.51e-09 | – | – | – | – | –
[3], c1 = 9e-10 | – | – | – | – | – | 0.0074 | 0.0081 | 0.009 | 0.0098 | 0.0107
[3], c1 = 3.9e-09 | – | – | – | – | – | 0.0067 | 0.0075 | 0.0082 | 0.0091 | 0.0097
[3], c1 = 1.06e-08 | – | – | – | – | – | 0.0062 | 0.007 | 0.0077 | 0.0084 | 0.0091
[3], c1 = 1.82e-08 | – | – | – | – | – | 0.006 | 0.0067 | 0.0074 | 0.0081 | 0.0088
[3], c1 = 2.57e-08 | – | – | – | – | – | 0.0059 | 0.0065 | 0.0072 | 0.0076 | 0.0083

CCn1cc[n+](C)c1.N#CN=C=[N-] [1-ethyl-3-methylimidazolium dicyanamide]
[1]
Details | mass density [kg/m3]
303.2 K | 1105.8
308.2 K | 1102.6
313.2 K | 1099.4
318.2 K | 1096.2
323.2 K | 1093

CCn1cc[n+](C)c1.N#CN=C=[N-] [1-ethyl-3-methylimidazolium dicyanamide] + O
Details | binary diffusion coefficient, 303.2 K [m2/s] | binary diffusion coefficient, 308.2 K [m2/s] | binary diffusion coefficient, 313.2 K [m2/s] | binary diffusion coefficient, 318.2 K [m2/s] | binary diffusion coefficient, 323.2 K [m2/s] | molar conductivity, 303.2 K [S·m2/mol] | molar conductivity, 308.2 K [S·m2/mol] | molar conductivity, 313.2 K [S·m2/mol] | molar conductivity, 318.2 K [S·m2/mol] | molar conductivity, 323.2 K [S·m2/mol]
[2], x1 = 0 | 1.25e-09 | 1.41e-09 | 1.54e-09 | 1.71e-09 | 1.85e-09 | – | – | – | – | –
[3], c1 = 1.2e-09 | – | – | – | – | – | 0.0095 | 0.0103 | 0.011 | 0.0123 | 0.0133
[3], c1 = 6.6e-09 | – | – | – | – | – | 0.009 | 0.0098 | 0.0108 | 0.0118 | 0.0128
[3], c1 = 1.19e-08 | – | – | – | – | – | 0.0087 | 0.0095 | 0.0105 | 0.0113 | 0.0125
[3], c1 = 2.28e-08 | – | – | – | – | – | 0.0083 | 0.0092 | 0.01 | 0.0109 | 0.0119
[3], c1 = 4.15e-08 | – | – | – | – | – | 0.0079 | 0.0088 | 0.0095 | 0.0103 | 0.0114

CCOS(=O)(=O)[O-].CCn1cc[n+](C)c1 [1-ethyl-3-methylimidazolium ethyl sulfate]
[1]
Details | mass density [kg/m3]
303.2 K | 1232.7
308.2 K | 1229.4
313.2 K | 1226.2
318.2 K | 1222.9
323.2 K | 1219.7

CCOS(=O)(=O)[O-].CCn1cc[n+](C)c1 [1-ethyl-3-methylimidazolium ethyl sulfate] + O
Details | binary diffusion coefficient, 303.2 K [m2/s] | binary diffusion coefficient, 308.2 K [m2/s] | binary diffusion coefficient, 313.2 K [m2/s] | binary diffusion coefficient, 318.2 K [m2/s] | binary diffusion coefficient, 323.2 K [m2/s] | molar conductivity, 303.2 K [S·m2/mol] | molar conductivity, 308.2 K [S·m2/mol] | molar conductivity, 313.2 K [S·m2/mol] | molar conductivity, 318.2 K [S·m2/mol] | molar conductivity, 323.2 K [S·m2/mol]
[2], x1 = 0 | 1.04e-09 | 1.19e-09 | 1.4e-09 | 1.5e-09 | 1.64e-09 | – | – | – | – | –
[3], c1 = 1.6e-09 | – | – | – | – | – | 0.008 | 0.0089 | 0.0097 | 0.0106 | 0.0116
[3], c1 = 4.6e-09 | – | – | – | – | – | 0.0076 | 0.0084 | 0.0092 | 0.0101 | 0.011
[3], c1 = 8.6e-09 | – | – | – | – | – | 0.0074 | 0.0081 | 0.0089 | 0.0097 | 0.0106
[3], c1 = 1.72e-08 | – | – | – | – | – | 0.0071 | 0.0079 | 0.0086 | 0.0095 | 0.0102
[3], c1 = 3.58e-08 | – | – | – | – | – | 0.0065 | 0.0073 | 0.0082 | 0.0091 | 0.0098

CCn1cc[n+](C)c1.F[B-](F)(F)F [1-ethyl-3-methylimidazolium tetrafluoroborate]
[1]
Details | mass density [kg/m3]
303.2 K | 1278.7
308.2 K | 1275
313.2 K | 1271.4
318.2 K | 1267.8
323.2 K | 1264.2

CCn1cc[n+](C)c1.F[B-](F)(F)F [1-ethyl-3-methylimidazolium tetrafluoroborate] + O
Details | binary diffusion coefficient, 303.2 K [m2/s] | binary diffusion coefficient, 308.2 K [m2/s] | binary diffusion coefficient, 313.2 K [m2/s] | binary diffusion coefficient, 318.2 K [m2/s] | binary diffusion coefficient, 323.2 K [m2/s] | molar conductivity, 303.2 K [S·m2/mol] | molar conductivity, 308.2 K [S·m2/mol] | molar conductivity, 313.2 K [S·m2/mol] | molar conductivity, 318.2 K [S·m2/mol] | molar conductivity, 323.2 K [S·m2/mol]
[2], x1 = 0 | 1.5e-09 | 1.57e-09 | 1.69e-09 | 1.88e-09 | 2.01e-09 | – | – | – | – | –
[3], c1 = 1e-09 | – | – | – | – | – | 0.0119 | 0.013 | 0.0139 | 0.0149 | 0.0162
[3], c1 = 5.5e-09 | – | – | – | – | – | 0.0111 | 0.0121 | 0.0131 | 0.0142 | 0.0153
[3], c1 = 1.32e-08 | – | – | – | – | – | 0.0105 | 0.0116 | 0.0125 | 0.0136 | 0.0146
[3], c1 = 2.22e-08 | – | – | – | – | – | 0.0101 | 0.0111 | 0.012 | 0.013 | 0.014
[3], c1 = 4.15e-08 | – | – | – | – | – | 0.009 | 0.0099 | 0.0108 | 0.0117 | 0.0127

CCn1cc[n+](C)c1.O=S(=O)([O-])C(F)(F)F [1-ethyl-3-methylimidazolium trifluoromethanesulfonate]
[1]
Details | mass density [kg/m3]
303.2 K | 1377.3
308.2 K | 1373.3
313.2 K | 1369.3
318.2 K | 1365.3
323.2 K | 1361.2

CCn1cc[n+](C)c1.O=S(=O)([O-])C(F)(F)F [1-ethyl-3-methylimidazolium trifluoromethanesulfonate] + O
Details | binary diffusion coefficient, 303.2 K [m2/s] | binary diffusion coefficient, 308.2 K [m2/s] | binary diffusion coefficient, 313.2 K [m2/s] | binary diffusion coefficient, 318.2 K [m2/s] | binary diffusion coefficient, 323.2 K [m2/s] | molar conductivity, 303.2 K [S·m2/mol] | molar conductivity, 308.2 K [S·m2/mol] | molar conductivity, 313.2 K [S·m2/mol] | molar conductivity, 318.2 K [S·m2/mol] | molar conductivity, 323.2 K [S·m2/mol]
[2], x1 = 0 | 1.16e-09 | 1.27e-09 | 1.51e-09 | 1.66e-09 | 1.8e-09 | – | – | – | – | –
[3], c1 = 1.2e-09 | – | – | – | – | – | 0.0083 | 0.0093 | 0.0101 | 0.011 | 0.012
[3], c1 = 3.8e-09 | – | – | – | – | – | 0.0079 | 0.0088 | 0.0097 | 0.0106 | 0.0114
[3], c1 = 8.7e-09 | – | – | – | – | – | 0.0077 | 0.0085 | 0.0093 | 0.0102 | 0.0111
[3], c1 = 1.86e-08 | – | – | – | – | – | 0.0073 | 0.008 | 0.0088 | 0.0095 | 0.0103
[3], c1 = 3.19e-08 | – | – | – | – | – | 0.0069 | 0.0077 | 0.0084 | 0.0092 | 0.01

F[B-](F)(F)F.[Li+] [lithium fluoroborate] + O
molar conductivity [S·m2/mol], [3]
Details | 303.2 K | 308.2 K | 313.2 K | 318.2 K | 323.2 K
c1 = 3e-09 | 0.0117 | 0.0126 | 0.0134 | 0.0144 | 0.0158
c1 = 1.11e-08 | 0.0111 | 0.0122 | 0.0129 | 0.0139 | 0.0155
c1 = 2.73e-08 | 0.0106 | 0.0119 | 0.0125 | 0.0135 | 0.0152
c1 = 4.81e-08 | 0.0103 | 0.0115 | 0.0121 | 0.0131 | 0.0149
c1 = 7.55e-08 | 0.01 | 0.0112 | 0.0118 | 0.0127 | 0.0145

Source: the NIST ThermoML archive (doi:10.1016/j.fluid.2008.07.006)
